# Where a name gives a salt, the structure may show the parent alone.
# Legend:
# [1] = molecular target: T1, human norepinephrine transporter (hNET) (Homo sapiens, UniProt P23975); test: hNET uptake, Protocol A: inhibition of [3H] NE uptake into cloned human NE transporters (MDCK cells); format: cell-based; parameters: expressed in transfected cells; host or cells: MDCK-Net6 cells; conditions: for IC50: MDCK cells expressing hNET, [3H] NE 16 nM; for inhibition at 2 µM: MDCK, read-out: NE uptake (Protocol A) % inh. @ 2 uM
# Procedure: hNET Assay Procedure Protocol A: Inhibition of [^3H] NE Uptake into Cloned Human NE Transporters (MDCK Cells) (“hNET uptake”)
# [^3H] […] Cells were seeded at 300,000/T75 flask, and split twice weekly.
# All uptake experiments were performed in 96-well plates (Falcon Optilux, cat #353947) in a total volume of 250 μl/well. MDCK cells were plated at 50,000 cells/well. […] 25 μl of each test compound was subsequently added to plates in triplicate and incubated at 37° C. for 5 minutes. All test compounds were dissolved in 100% DMSO and diluted in 4% DMSO/H2O, and assayed using a 7-point dose response curve (1 nM-10 μM). Next, 25 μl of [^3H] NE (74.9 Ci/mmol, Perkin Elmer, Boston, Mass.) was added to all wells and incubated at 37° C. for an additional 5 minutes. Non-specific uptake was defined by 20 μM desipramine. The final concentrations of [^3H] NE was 16 nM, respectively. The reaction was terminated by aspiration and washed with ice cold 50 mM Tris (pH 7.4). The plates were left to air dry for roughly 30 min, and MDCK cells were lysed by the addition of 25 μl of 0.25 M NaOH. 100 μl of Microscint-20 were added to each well (Packard, Perkin Elmer, Boston, Mass.), and the plates were counted using a TopCount (Perkin Elmer, Downer's Grove, Ill.) liquid scintillation counter.
# % Inhibition of uptake=((mean cpm control wells−each cpm drug well)/(mean cpm control wells−non-specific wells)×100.
# IC50 values were calculated using a Prism® nonlinear regression program where % inhibition is plotted versus concentration of inhibitor.
# hNET = hNET (Homo sapiens, UniProt P23975); test: hNET binding according to Mahaney et al.; conditions: printed in the Protocol B column with footnote
# [2] = molecular target: Dopamine Transporter (hDAT) (Homo sapiens, UniProt Q01959); test: Dopamine transporter (hDAT) membrane binding assay, [3H]-WIN 35,428
# [3] = molecular target: T1, human norepinephrine transporter (hNET); test: hNET uptake, Protocol B: cell based norepinephrine reuptake assay using recombinant hNET (MDCK-Net6 cells)
# [4] = Rat liver microsomal stability assay; format: in vitro ADME; conditions: rat liver microsomes, 37° C., NADPH; for half-life at 1 µM: pH 7.4, read-out: RLM stability t1/2
# [5] = hNET Function IC50 (nM), protocol not stated
# T1 sequence (P23975 whole entry): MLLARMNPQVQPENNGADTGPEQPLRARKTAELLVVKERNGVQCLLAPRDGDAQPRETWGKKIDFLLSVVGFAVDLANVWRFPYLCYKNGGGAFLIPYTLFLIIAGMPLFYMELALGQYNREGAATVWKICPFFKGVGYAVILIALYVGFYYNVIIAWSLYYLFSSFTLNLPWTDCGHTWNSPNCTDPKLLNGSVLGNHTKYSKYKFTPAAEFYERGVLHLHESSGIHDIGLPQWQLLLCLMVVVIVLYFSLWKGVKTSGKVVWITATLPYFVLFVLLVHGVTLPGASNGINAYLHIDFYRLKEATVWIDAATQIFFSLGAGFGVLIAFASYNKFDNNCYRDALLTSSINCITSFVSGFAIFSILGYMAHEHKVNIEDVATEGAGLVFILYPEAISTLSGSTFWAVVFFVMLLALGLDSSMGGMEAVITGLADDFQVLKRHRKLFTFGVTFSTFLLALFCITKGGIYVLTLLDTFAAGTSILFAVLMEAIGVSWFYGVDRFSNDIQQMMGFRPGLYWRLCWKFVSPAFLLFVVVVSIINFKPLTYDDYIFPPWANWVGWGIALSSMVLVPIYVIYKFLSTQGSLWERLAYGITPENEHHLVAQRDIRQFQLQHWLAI
# Dopamine Transporter (hDAT), sequence (Q01959 whole entry): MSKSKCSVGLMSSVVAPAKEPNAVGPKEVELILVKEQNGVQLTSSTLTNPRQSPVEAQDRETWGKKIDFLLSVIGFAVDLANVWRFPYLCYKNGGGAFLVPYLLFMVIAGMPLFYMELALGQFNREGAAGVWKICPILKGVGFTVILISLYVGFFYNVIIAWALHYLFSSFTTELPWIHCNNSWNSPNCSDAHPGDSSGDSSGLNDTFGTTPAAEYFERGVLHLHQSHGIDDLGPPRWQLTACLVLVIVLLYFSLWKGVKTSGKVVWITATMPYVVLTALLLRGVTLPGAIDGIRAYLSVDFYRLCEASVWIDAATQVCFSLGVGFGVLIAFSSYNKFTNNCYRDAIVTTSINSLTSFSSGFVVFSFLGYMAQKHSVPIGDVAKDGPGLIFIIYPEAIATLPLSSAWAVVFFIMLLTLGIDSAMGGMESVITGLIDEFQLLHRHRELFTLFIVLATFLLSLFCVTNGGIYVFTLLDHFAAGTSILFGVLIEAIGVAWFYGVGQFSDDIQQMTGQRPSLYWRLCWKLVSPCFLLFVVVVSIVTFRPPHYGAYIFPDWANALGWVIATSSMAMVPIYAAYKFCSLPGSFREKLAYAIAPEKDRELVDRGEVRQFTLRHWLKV
# hNET, sequence (P23975 whole entry): as the sequence (P23975 whole entry) above
IC50 [2],"IC50 [3, 5]",half-life at 1 µM [4],SMILES,other results
9330 nM,2.3 nM,1 min,CNCCCCN1c2ccccc2N(c2c(F)cccc2F)S1(=O)=O [drawing 162],–
665 nM,2.56 nM,1 min,CCNCCCN1c2ccccc2N(c2ccccc2F)S1(=O)=O [drawing 170],–
276 nM,7.06 nM,< 1 min,CNCCCN1c2ccccc2N(c2ccccc2C)S1(=O)=O [drawing 168],–
598 nM,2.6 nM,2 min,CNCCCN1c2ccccc2N(c2ccccc2)S1(=O)=O [drawing 157],–
178 nM,10.8 nM,2 min,CNCCCN1c2ccccc2N(c2cccc(OC)c2)S1(=O)=O [drawing 169],–
211 nM,0.3 nM,2 min,CNCCCCN1c2ccccc2N(c2ccccc2)S1(=O)=O [drawing 158],–
479 nM,2.7 nM,2 min,CNCCCN1c2ccccc2N(c2cc(F)ccc2F)S1(=O)=O [drawing 164],–
52.8 nM,46.1 nM,19 min,CNCCCCN1c2ccccc2N(c2ccc(F)cc2)S1(=O)=O [drawing 167],–
366 nM,11.3 nM,10 min,CNCCCN1c2ccccc2N(c2ccc(F)cc2F)S1(=O)=O [drawing 165],–
122 nM,19.8 nM,18 min,CNCCCN1c2ccccc2N(c2ccc(F)c(F)c2)S1(=O)=O [drawing 163],–

# Second part, the compound before the results:
SMILES,IC50 [2],"IC50 [3, 5]",half-life at 1 µM [4],other results
"NCCCN1c2ccccc2N(c2ccc(Cl)cc2)S1(=O)=O [Example 2, 3-[3-(4-chlorophenyl)-2,2-dioxido-2,1,3-benzothiadiazol-1(3H)-yl]propan-1-amine]",–,–,–,IC50 [1]: 2530 nM
"NCCCCN1c2ccccc2N(c2ccc(Cl)cc2)S1(=O)=O [Example 19, 4-[3-(4-chlorophenyl)-2,2-dioxido-2,1,3-benzothiadiazol-1(3H)-yl]butan-1-amine]",–,–,–,IC50 [1]: 1130 nM
"CCCCNCCCCN1c2ccccc2N(c2ccc(Cl)cc2)S1(=O)=O [Example 22, n-butyl-4-[3-(4-chlorophenyl)-2,2-dioxido-2,1,3-benzothiadiazol-1(3H)-yl]butan-1-amine]",–,–,–,inhibition at 2 µM [1]: 27%
"NCCCCCN1c2ccccc2N(c2ccc(F)cc2F)S1(=O)=O [Example 116, 5-[3-(2,4-difluorophenyl)-2,2-dioxido-2,1,3-benzothiadiazol-1(3H)-yl]pentan-1-amine hydrochloride]",–,–,–,IC50 (hNET): 679 nM
CNCCCN1c2ccccc2N(c2c(F)cccc2F)S1(=O)=O,–,–,–,RLM stability t1/2 [4]: 2.0 min
CNCCCCN1c2ccccc2N(c2ccc(F)cc2F)S1(=O)=O,449 nM,8.4 nM,11 min,–
"CNCCN1c2ccccc2N(c2ccc(Cl)cc2)S1(=O)=O [Example 55, 2-[3-(4-chlorophenyl)-2,2-dioxido-2,1,3-benzothiadiazol-1(3H)-yl]-N-methylethanamine]",–,–,–,inhibition at 2 µM [1]: 15%
"CCNCCCN1c2ccccc2N(c2ccc(Cl)cc2)S1(=O)=O [Example 4, 3-[3-(4-chlorophenyl)-2,2-dioxido-2,1,3-benzothiadiazol-1(3H)-yl]-N-ethylpropan-1-amine]",–,–,–,inhibition at 2 µM [1]: 37%
"CNCCCCN1c2ccccc2N(c2ccc(Cl)cc2)S1(=O)=O [Example 20, 4-[3-(4-chlorophenyl)-2,2-dioxido-2,1,3-benzothiadiazol-1(3H)-yl]-N-methylbutan-1-amine]",–,–,–,IC50 [1]: 478 nM
"CCN(C)CCCCN1c2ccccc2N(c2ccc(Cl)cc2)S1(=O)=O [Example 23, 4-[3-(4-chlorophenyl)-2,2-dioxido-2,1,3-benzothiadiazol-1(3H)-yl]-ethyl-N-methylbutan-1-amine]",–,–,–,inhibition at 2 µM [1]: 28%
"CN(C)CCCCN1c2ccccc2N(c2ccc(Cl)cc2)S1(=O)=O [Example 21, 4-[3-(4-chlorophenyl)-2,2-dioxido-2,1,3-benzothiadiazol-1(3H)-yl]-N,N-dimethylbutan-1-amine]",–,–,–,IC50 [1]: 5890 nM
"CNCCCN1c2ccccc2N(c2cccc(F)c2C)S1(=O)=O [Example 10, 3-[3-(3-fluoro-2-methylphenyl)-2,2-dioxido-2,1,3-benzothiadiazol-1(3H)-yl]-N-methylpropan-1-amine]",–,–,–,IC50 [1]: 40.2 nM
"O=S1(=O)N(CCCNC2CC2)c2ccccc2N1c1ccc(Cl)cc1 [Example 3, N-{3-[3-(4-chlorophenyl)-2,2-dioxido-2,1,3-benzothiadiazol-1(3H)-yl]propyl}cyclopropanamine]",–,–,–,IC50 [1]: 4220 nM
"NCCN1c2ccccc2N(c2ccc(Cl)cc2)S1(=O)=O [Example 54, 2-[3-(4-chlorophenyl)-2,2-dioxido-2,1,3-benzothiadiazol-1(3H)-yl]ethanamine]",–,–,–,inhibition at 2 µM [1]: 3%
"CNCCCN1c2ccccc2N(c2ccc(F)c(F)c2F)S1(=O)=O [Example 113, 3-[2,2-dioxido-3-(2,3,4-trifluorophenyl)-2,1,3-benzothiadiazol-1(3H)-yl]-N-methylpropan-1-amine]",–,–,–,"IC50 ([3]; NE uptake (Protocol B) IC50 (nM), MDCK-Net6 cells, 3H-NE 16 nM): 109 nM"
